Consider 25 molecules from patent US12201633B2, “Compounds and methods for treatment of visceral pain” (Arena Pharmaceuticals, Inc., priority 2017, dated 2025).

For the first assay, the target named is T1, human CB2 receptor (Homo sapiens, UniProt P34972). Briefly: HTRF assay for direct cAMP measurement, CB2. The assay is classed as cell-based. Also noted: 93-0164 (CHO-K1 EA-Arrestin parental line); host or cells: CHO-K1 EA-Arrestin, clone #61.
T1 sequence (P34972 whole entry): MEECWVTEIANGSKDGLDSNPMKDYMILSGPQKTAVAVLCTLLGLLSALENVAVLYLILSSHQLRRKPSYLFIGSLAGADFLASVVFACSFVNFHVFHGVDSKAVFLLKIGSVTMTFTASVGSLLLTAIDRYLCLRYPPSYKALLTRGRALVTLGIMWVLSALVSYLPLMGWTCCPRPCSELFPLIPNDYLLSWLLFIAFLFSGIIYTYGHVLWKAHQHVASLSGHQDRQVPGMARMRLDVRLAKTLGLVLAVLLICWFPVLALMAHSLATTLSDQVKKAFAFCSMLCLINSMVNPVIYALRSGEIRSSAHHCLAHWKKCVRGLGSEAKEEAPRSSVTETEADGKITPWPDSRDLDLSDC
Details: not given
With `CC(C)[C@@H](CO)NC(=O)c1nn(-c2c[n+]([O-])ccn2)c2c1C[C@H]1C[C@@H]21` [Compound 690, (1aR,5aR)-2-(4-Oxy-pyrazin-2-yl)-1a,2,5,5a-tetrahydro-1H-2,3-diaza-cyclopropa[a]pentalene-4-carboxylic acid ((S)-1-hydroxymethyl-2-methyl-propyl)-amide], the EC50 – broadly, the concentration at which the effect is half-maximal – was 1.79 nM.
Consider `O=C(NC1(CO)CC1)c1nn(-c2ccc(Cl)cc2Cl)c2c1C[C@H]1C[C@@H]21` [Compound 174, (1aR,5aR)-2-(2,4-Dichloro-phenyl)-1a,2,5,5a-tetrahydro-1H-2,3-diaza-cyclopropa[a]pentalene-4-carboxylic acid (1-hydroxymethyl-cyclopropyl)-amide], for which the EC50 is 38.2 nM.
As for `CC(C)(C#N)NC(=O)c1nn(-c2cc(Cl)ccn2)c2c1C[C@H]1C[C@@H]21` [Compound 625, (1aR,5aR)-2-(4-Chloro-pyridin-2-yl)-1a,2,5,5a-tetrahydro-1H-2,3-diaza-cyclopropa[a]pentalene-4-carboxylic acid (cyano-dimethyl-methyl)-amide], the EC50 turned out to be 4.45 nM.
The same measure, in the same setting: under `CC(C)(C)[C@@H](CO)NC(=O)c1nn(-c2cnccn2)c2c1C[C@H]1C[C@@H]21` [Compound 642, (1aR,5aR)-2-Pyrazin-2-yl-1a,2,5,5a-tetrahydro-1H-2,3-diaza-cyclopropa[a]pentalene-4-carboxylic acid ((S)-1-hydroxymethyl-2,2-dimethyl-propyl)-amide] stands 4.38 nM; under `O=C(N[C@H]1c2ccccc2C[C@H]1O)c1nn(-c2c[n+]([O-])ccn2)c2c1C[C@@H]1C[C@H]21` [Compound 921, (1aS,5aS)-2-(4-Oxy-pyrazin-2-yl)-1a,2,5,5a-tetrahydro-1H-2,3-diaza-cyclopropa[a]pentalene-4-carboxylic acid ((1S,2R)-2-hydroxy-indan-1-yl)-amide], 0.2 nM; under `CC(C)(CO)NC(=O)c1nn(-c2ccc(F)cc2F)c2c1C1CC1C2` (stereo not drawn) [Compound 515, 1-(2,4-Difluoro-phenyl)-3b,4,4a,5-tetrahydro-1H-cyclopropa[3,4]cyclopenta[1,2-c]pyrazole-3-carboxylic acid (2-hydroxy-1,1-dimethyl-ethyl)-amide], 4.32 nM.
In the case of `CC(C)(CO)NC(=O)c1nn(-c2cnc(C#N)cn2)c2c1C[C@H]1C[C@@H]21` [Compound 264, (1aR,5aR)-2-(5-Cyano-pyrazin-2-yl)-1a,2,5,5a-tetrahydro-1H-2,3-diaza-cyclopropa[a]pentalene-4-carboxylic acid (2-hydroxy-1,1-dimethyl-ethyl)-amide], the EC50 came out at 10.1 nM.

A further assay concerns the target T1, human CB2 receptor. Nature of the assay: PathHunter β-arrestin assay, CB2.
Details: not given
Take `CC(C)[C@H](N)C(=O)OC[C@@H](NC(=O)c1nn(-c2c[n+]([O-])ccn2)c2c1C[C@@H]1C[C@H]21)C(C)(C)C` [Compound 848, (1aS,5aS)—(S)-2-Amino-3-methyl-butyric acid (S)-3,3-dimethyl-2-{[2-(4-oxy-pyrazin-2-yl)-1a,2,5,5a-tetrahydro-1H-2,3-diaza-cyclopropa[a]pentalene-4-carbonyl]-amino}-butyl ester]: the EC50 came to 50 nM.
Molecule `CC(C)[C@@H](CO)NC(=O)c1nn(-c2c[n+]([O-])ccn2)c2c1C[C@@H]1C[C@H]21` [Compound 896, (1aS,5aS)-2-(4-Oxy-pyrazin-2-yl)-1a,2,5,5a-tetrahydro-1H-2,3-diaza-cyclopropa[a]pentalene-4-carboxylic acid ((S)-1-hydroxymethyl-2-methyl-propyl)-amide] came in with an EC50 of 43.5 nM.
On the same count and under the same terms, under `CNC(=O)[C@@H](NC(=O)c1nn(-c2c[n+]([O-])ccn2)c2c1C[C@H]1C[C@@H]21)c1ccccc1` [Compound 722, (1aR,5aR)-2-(4-Oxy-pyrazin-2-yl)-1a,2,5,5a-tetrahydro-1H-2,3-diaza-cyclopropa[a]pentalene-4-carboxylic acid ((S)-methylcarbamoyl-phenyl-methyl)-amide] stands 34 nM.
The same measure, in the same setting: under `CC(C)(CF)NC(=O)c1nn(-c2c[n+]([O-])ccn2)c2c1C[C@@H]1C[C@H]21` [Compound 904, (1aS,5aS)-2-(4-Oxy-pyrazin-2-yl)-1a,2,5,5a-tetrahydro-1H-2,3-diaza-cyclopropa[a]pentalene-4-carboxylic acid (2-fluoro-1,1-dimethyl-ethyl)-amide] stands 31.4 nM; under `CC(C)[C@@H](CO)NC(=O)c1nn(-c2c[n+]([O-])ccn2)c2c1C[C@H]1C[C@@H]21` [Compound 690, (1aR,5aR)-2-(4-Oxy-pyrazin-2-yl)-1a,2,5,5a-tetrahydro-1H-2,3-diaza-cyclopropa[a]pentalene-4-carboxylic acid ((S)-1-hydroxymethyl-2-methyl-propyl)-amide], 31 nM.
`O=C(NC1(CO)CC1)c1nn(-c2ccc(Cl)cc2Cl)c2c1C[C@H]1C[C@@H]21` [Compound 174, (1aR,5aR)-2-(2,4-Dichloro-phenyl)-1a,2,5,5a-tetrahydro-1H-2,3-diaza-cyclopropa[a]pentalene-4-carboxylic acid (1-hydroxymethyl-cyclopropyl)-amide] yielded an EC50 of 167 nM.
On the same count and under the same terms, under `CC(C)[C@@H](C)NC(=O)c1nn(-c2c[n+]([O-])ccn2)c2c1C[C@H]1C[C@@H]21` [Compound 828, (1aR,5aR)-2-(4-Oxy-pyrazin-2-yl)-1a,2,5,5a-tetrahydro-1H-2,3-diaza-cyclopropa[a]pentalene-4-carboxylic acid ((R)-1,2-dimethyl-propyl)-amide] stands 4.14 nM; under `CC(C)(C)[C@@H](COP(=O)(O)O)NC(=O)c1nn(-c2c[n+]([O-])ccn2)c2c1C[C@H]1C[C@@H]21` [Compound 703, Phosphoric acid mono-((S)-3,3-dimethyl-2-{[(1aR,5aR)-2-(4-oxy-pyrazin-2-yl)-1a,2,5,5a-tetrahydro-1H-2,3-diaza-cyclopropa[a]pentalene-4-carbonyl]-amino}-butyl) ester], 603 nM.
The molecule `CC(C)(C)[C@@H](COP(=O)(O)O)NC(=O)c1nn(-c2cnccn2)c2c1C[C@H]1C[C@@H]21` [Compound 683, Phosphoric acid mono-{(S)-3,3-dimethyl-2-[((1aR,5aR)-2-pyrazin-2-yl-1a,2,5,5a-tetrahydro-1H-2,3-diaza-cyclopropa[a]pentalene-4-carbonyl)-amino]-butyl} ester] registered a 50% effective concentration (EC50) of 3000 nM.
On the same count and under the same terms, the value for `CC(C)(C)NNC(=O)c1nn(-c2c[n+]([O-])ccn2)c2c1C[C@@H]1C[C@H]21` [Compound 902, (1aS,5aS)-2-(4-Oxy-pyrazin-2-yl)-1a,2,5,5a-tetrahydro-1H-2,3-diaza-cyclopropa[a]pentalene-4-carboxylic acid N′-tert-butyl-hydrazide] was 77.5 nM; that for `CC(C)(C#N)NC(=O)c1nn(-c2cc(Cl)ccn2)c2c1C[C@H]1C[C@@H]21` [Compound 625, (1aR,5aR)-2-(4-Chloro-pyridin-2-yl)-1a,2,5,5a-tetrahydro-1H-2,3-diaza-cyclopropa[a]pentalene-4-carboxylic acid (cyano-dimethyl-methyl)-amide] was 11.8 nM; that for `CC(C)(C)[C@@H](CO)NC(=O)c1nn(-c2cnccn2)c2c1C[C@H]1C[C@@H]21` [Compound 642, (1aR,5aR)-2-Pyrazin-2-yl-1a,2,5,5a-tetrahydro-1H-2,3-diaza-cyclopropa[a]pentalene-4-carboxylic acid ((S)-1-hydroxymethyl-2,2-dimethyl-propyl)-amide] was 26.4 nM.
The same measure, in the same setting: under `O=C(N[C@H]1c2ccccc2C[C@@H]1O)c1nn(-c2c[n+]([O-])ccn2)c2c1C[C@@H]1C[C@H]21` [Compound 920, (1aS,5aS)-2-(4-Oxy-pyrazin-2-yl)-1a,2,5,5a-tetrahydro-1H-2,3-diaza-cyclopropa[a]pentalene-4-carboxylic acid ((1S,2S)-2-hydroxy-indan-1-yl)-amide] stands 4.6 nM; under `O=C(N[C@H]1c2ccccc2C[C@H]1O)c1nn(-c2c[n+]([O-])ccn2)c2c1C[C@@H]1C[C@H]21` [Compound 921, (1aS,5aS)-2-(4-Oxy-pyrazin-2-yl)-1a,2,5,5a-tetrahydro-1H-2,3-diaza-cyclopropa[a]pentalene-4-carboxylic acid ((1S,2R)-2-hydroxy-indan-1-yl)-amide], 2.59 nM; under `CC(C)[C@@H](C)NC(=O)c1nn(-c2c[n+]([O-])ccn2)c2c1C[C@@H]1C[C@H]21` [Compound 912, (1aS,5aS)-2-(4-Oxy-pyrazin-2-yl)-1a,2,5,5a-tetrahydro-1H-2,3-diaza-cyclopropa[a]pentalene-4-carboxylic acid ((R)-1,2-dimethyl-propyl)-amide], 9.49 nM.
The same measure, in the same setting: under `CC(C)(C)[C@@H](NC(=O)c1nn(-c2c[n+]([O-])ccn2)c2c1C[C@@H]1C[C@H]21)c1ccccn1` [Compound 766, (1aS,5aS)-2-(4-Oxy-pyrazin-2-yl)-1a,2,5,5a-tetrahydro-1H-2,3-diaza-cyclopropa[a]pentalene-4-carboxylic acid ((R)-2,2-dimethyl-1-pyridin-2-yl-propyl)-amide] stands 4.57 nM; under `CC(C)(C)[C@H](NC(=O)c1nn(-c2c[n+]([O-])ccn2)c2c1C[C@@H]1C[C@H]21)c1ccccn1` [Compound 767, (1aS,5aS)-2-(4-Oxy-pyrazin-2-yl)-1a,2,5,5a-tetrahydro-1H-2,3-diaza-cyclopropa[a]pentalene-4-carboxylic acid ((S)-2,2-dimethyl-1-pyridin-2-yl-propyl)-amide], 66.6 nM; under `CC(C)(CO)NC(=O)c1nn(-c2cc(F)ccn2)c2c1C[C@H]1C[C@@H]21` [Compound 931, (1aR,5aR)-2-(4-Fluoro-pyridin-2-yl)-1a,2,5,5a-tetrahydro-1H-2,3-diaza-cyclopropa[a]pentalene-4-carboxylic acid (2-hydroxy-1,1-dimethyl-ethyl)-amide], 20.8 nM.
`CC(C)(COP(=O)(O)O)NC(=O)c1nn(-c2cc(C#N)ccn2)c2c1C[C@H]1C[C@@H]21` [Compound 646, Phosphoric acid mono-(2-{[(1aR,5aR)-2-(4-cyano-pyridin-2-yl)-1a,2,5,5a-tetrahydro-1H-2,3-diaza-cyclopropa[a]pentalene-4-carbonyl]-amino}-2-methyl-propyl) ester] yielded an EC50 of 925 nM.
The same measure, in the same setting: the value for `O=C(NC1(C(F)(F)F)CC1)c1nn(-c2cnccn2)c2c1C[C@@H]1C[C@H]21` [Compound 930, (1aS,5aS)-2-Pyrazin-2-yl-1a,2,5,5a-tetrahydro-1H-2,3-diaza-cyclopropa[a]pentalene-4-carboxylic acid (1-trifluoromethyl-cyclopropyl)-amide] was 17 nM.
As to `COC(=O)C(NC(=O)c1nn(-c2c[n+]([O-])ccn2)c2c1C[C@H]1C[C@@H]21)c1ccccn1` (stereo partly drawn) [Compound 711, {[(1aR,5aR)-2-(4-Oxy-pyrazin-2-yl)-1a,2,5,5a-tetrahydro-1H-2,3-diaza-cyclopropa[a]pentalene-4-carbonyl]-amino}-pyridin-2-yl-acetic acid methyl ester], the EC50 came to 28.1 nM.

Still in this assay, the particulars now being: read-out: EC50 hCB2; β-arrestin, CHO-K1 cells; Table B-2.
On to `O=C(N[C@H](CO)c1ccccc1)c1nn(-c2c[n+]([O-])ccn2)c2c1C[C@@H]1C[C@H]21` [Compound 913, (1aS,5aS)-2-(4-Oxy-pyrazin-2-yl)-1a,2,5,5a-tetrahydro-1H-2,3-diaza-cyclopropa[a]pentalene-4-carboxylic acid ((S)-2-hydroxy-1-phenyl-ethyl)-amide], for which the EC50 stood at 105 nM.
For the molecule `O=C(NC1(C(F)(F)F)CC1)c1nn(-c2c[n+]([O-])ccn2)c2c1C[C@@H]1C[C@H]21` [Compound 764, (1aS,5aS)-2-(4-Oxy-pyrazin-2-yl)-1a,2,5,5a-tetrahydro-1H-2,3-diaza-cyclopropa[a]pentalene-4-carboxylic acid (1-trifluoromethyl-cyclopropyl)-amide], the EC50 worked out at 5.92 nM.
